Values joined by “and” are separate entries in the source; they are usually repeats but may differ in a detail not shown here. Equal entries are not always repeated.
How the values were obtained:
[1] = test system: S. aureus exponentially-growing cells; assay: Killing at one MIC in PBS, NPIMA compared with cisplatin; assay type: cell-based, Staphylococcus aureus; conditions: 3 hr
Excerpt: (§1) FIG. 7. NPIMA compared width cisplatin for killing Pseudomonas aeruginosa, Escherichia coli, and Staphylococcus aureus. Survival of exponentially-growing cells of P. aeruginosa PA14 (a), E. coli (b), and S. aureus (c) treated with one MIC of NPIMA (♦) and cisplatin (●) for 3 hr in PBS. DMSO (▴) and NaClO4 (*) were used as a negative controls. MIC, minimum inhibitory concentration; NPIMA, 5-nitro-3-phenyl-1H-indol-2-yl-methylamine hydrochloride.
(§2) For bacterial viability, cells were washed twice with 0.85% NaCl, resuspended in 1×PBS, and cell counts were determined via the drop assay (Donegan, Matyac, Seidler, & Porteous, 1991). For human cell viability, pre-cultured human cancer HT-29 cells were dispensed in 98 μl in 96-well plates with approximately 5,000 cells/well. NPIMA was added (2 μl) to produce concentrations of 5, 10, 100, and 200 μM. For controls, Triton X-100 (positive control) and DMSO (negative solvent control), were used, and the medium was used for background. Plates were incubated in a humidified incubator (37° C., 5% CO2) for 24 hr. Cell viability was determined via a cell counting kit (CCK-8 Kit, ab228554; Abcam), and cytotoxicity was determined via the lactate dehydrogenase (LDH) assay (LDH Assay Kit, MK401; Takara).

[2] = test system: P. aeruginosa PA14 exponential cells; assay: Survival of exponentially-growing cells (drop assay); assay type: cell-based, Pseudomonas aeruginosa; conditions: 100 μM
Experimental: (§3) FIG. 2. NPIMA eradicates Escherichia coli, Pseudomonas aeruginosa, and Staphylococcus aureus exponential cells. Survival after 6 hr for (a) E. coli BW25113 with NPIMA and 5-iodoindole at 100 μM, (b) P. aeruginosa PA14 with NPIMA and 5-iodoindole at 100 μM, and (c) S. aureus with NPIMA and 5-iodoindole at 200 μM. Asterisk indicates no viable cells detected. NPIMA, 5-nitro-3-phenyl-1H-indol-2-yl-methylamine hydrochloride.
as §2

[3] = test system: P. aeruginosa PA14; assay: LIVE/DEAD staining; assay type: cell-based, Pseudomonas aeruginosa; conditions: 100 μM, 1 hr
Experimental: (§4) FIG. 4. NPIMA lyses Escherichia coli, Pseudomonas aeruginosa, and Staphylococcus aureus. LIVE/DEAD staining of (a) E. coli BW25113 after 0.75 hr, (b) P. aeruginosa PA14 after 1 hr, and (c) S. aureus after 1 hr treatment with NPIMA at 100 μM. […] White arrows indicate lysed cells. Representative images are shown. Scale bar=[…]. NPIMA, 5-nitro-3-phenyl-1H-indol-2-ylmethylamine hydrochloride.
(§5) Cell viability after treating with NPIMA was determined using the using the LIVE/DEAD BacLight Bacterial Viability Kit (catalog number, L7012; Molecular Probes, Inc., Eugene, OR). The fluorescence signal was analyzed via a Zeiss Axioscope.A1 using excitation at 485 nm and emission at 530 nm for green fluorescence and using excitation at 485 nm and emission at 630 nm for red fluorescence.

[4] = test system: S. aureus ATCC29213; assay: Minimum inhibitory concentration (MIC); assay type: cell-based; conditions: Staphylococcus aureus, LB, 24 hr
Experimental: (§6) The bacteria used in this study are E. coli K-12 BW25113 (Baba et al., 2006), S. aureus ATCC29213, and P. aeruginosa PA14 (Liberati et al., 2006). Lysogeny broth (LB; Bertani, 1951) was used at 37° C. for culturing the bacteria. 2-(Aminomethyl)-indole was obtained from Sigma-Aldrich (catalog number 563838), and 2-methyl-5-nitro-3-phenyl-1H-indole was obtained from ChemBridge (San Diego, CA).
(§7) To determine the MICs of NPIMA and 5-iodoindole for E. coli K-12, S. aureus, and P. aeruginosa PA14, cells were inoculated into LB at varying concentrations and grown for 24 hr. The MIC was determined as the lowest concentration that prevented an increase in growth as evidenced by a lack of change of turbidity.

[5] = test system: P. aeruginosa PA14; assay: Minimum inhibitory concentration (MIC); assay type: cell-based; conditions: Pseudomonas aeruginosa, LB, 24 hr
Experimental: as §6, §7

[6] = test system: E. coli K-12 BW25113; assay: Minimum inhibitory concentration (MIC); assay type: cell-based; conditions: Escherichia coli, LB, 24 hr
Experimental: as §6, §7

[7] = test system: E. coli BW25113; assay: LIVE/DEAD staining; assay type: cell-based, Escherichia coli; conditions: 100 μM, exponentially-growing cells
Experimental: as §4, §5

[8] = test system: P. aeruginosa PA14 persister cells; assay: Survival of persister cells (CCCP/ciprofloxacin generated); assay type: cell-based, Pseudomonas aeruginosa; conditions: 100 μM
Experimental: FIG. 3. NPIMA kills Escherichia coli, Pseudomonas aeruginosa, persister cells. Survival of (a) E. coli BW25113 and (b) P. aeruginosa PA14 after treatment with NPIMA (100 μM), 5-iodoindole (5-II, 100 μM), and DMSO for 6 hr. Asterisk indicates no viable cells detected. DMSO, dimethyl sulfoxide; NPIMA, 5-nitro-3-phenyl-1H-indol-2-yl-methylamine hydrochloride.
E. coli persister cells were prepared following our previous method (Kim, Yamasaki, et al., 2018; Kwan, Valenta, Benedik, & Wood, 2013). Exponentially-growing cells (turbidity of 0.8 at 600 nm) were treated with rifampicin (100 μg/ml for 30 min) to stop transcription, washed, and any remaining nonpersister cells were lysed by ampicillin in LB (100 μg/ml for 3 hr). Cells were harvested by centrifugation (17,000 g for 1 min) and washed with 1× phosphate-buffered saline buffer (PBS, 8 g NaCl, 0.2 g KCl, 1.15 g Na2HPO4, and 0.2 g KH2PO4 per 1,000 ml) twice to remove all possible carbon sources, then resuspended with 1×PBS. […]
For bacterial viability, cells were washed twice with 0.85% NaCl, resuspended in 1×PBS, and cell counts were determined via the drop assay (Donegan, Matyac, Seidler, & Porteous, 1991). […] Cell viability was determined via a cell counting kit (CCK-8 Kit, ab228554; Abcam), and cytotoxicity was determined via the lactate dehydrogenase (LDH) assay (LDH Assay Kit, MK401; Takara).

[9] = test system: E. coli BW25113 exponential cells; assay: Survival of exponentially-growing cells (drop assay); assay type: cell-based, Escherichia coli
Experimental: as §3
FIG. 8. NPIMA structure function relationships. Exponential cells of Escherichia coli BW25113 were treated with (a) 2-(aminomethyl) indole, and (b) 2-methyl-5-nitro-3-phenyl-1H-indole for 6 hr. NPIMA, 5-nitro-3-phenyl-1Hindol-2-yl-methylamine hydrochloride.
as §2

[10] = test system: P. aeruginosa PA14 exponentially-growing cells; assay: Killing at one MIC in PBS, NPIMA compared with cisplatin; assay type: cell-based, Pseudomonas aeruginosa; conditions: 3 hr
Excerpt: as §1, §2

Cl.NCc1[nH]c2ccc([N+](=O)[O-])cc2c1-c1ccccc1 [NPIMA, [(5-nitro-3-phenyl-1H-indol-2-yl)methyl]amine hydrochloride]
effectiveness relative to cisplatin [1]: less effective than cisplatin | time to eradicate exponentially-growing P. aeruginosa PA14 cells [2]: 6 h | cell lysis seen by LIVE/DEAD staining (extracellular DNA) [3]: lysed | cells killed (LIVE/DEAD) [3]: 100% | MIC [4]: 100 µM | MIC [5]: 250 µM | MIC [6]: 100 µM and 15 µg/mL | cell lysis seen by LIVE/DEAD staining (extracellular DNA) [7]: lysed | time to eradicate P. aeruginosa persister cells [8]: 3 h | time to eradicate exponentially-growing E. coli ([9]; 100 μM (1 MIC)): ≤ 3 h | killing of exponential E. coli cells ([9]; 100 μM, 6 hr): eradicated | effectiveness relative to cisplatin [10]: less effective
